Experimental data: paper PMC5452050 (ACS Omega, 2017)

How the values were obtained:
AURKA = AURKA (Homo sapiens, UniProt O14965); assay: Kd determination; assay type: binding
RET (M918T) = RET (M918T) (Homo sapiens, UniProt P07949, M918T); assay: Kd determination; assay type: binding
IRAK1 = IRAK1 (Homo sapiens, UniProt P51617); assay: Kd determination; assay type: binding
RET (V804M) = RET (V804M) (Homo sapiens, UniProt P07949, V804M); assay: Kd determination; assay type: binding
SRC = SRC (Homo sapiens, UniProt P12931); assay: Kd determination; assay type: binding
HCK = HCK (Homo sapiens, UniProt P08631); assay: Kd determination; assay type: binding
PRKCQ = PRKCQ (Homo sapiens, UniProt Q04759); assay: Kd determination; assay type: binding
[1] = molecular target: T1, recombinant human FLT3 (571–993) (Homo sapiens, UniProt P36888); assay: biochemical; assay type: biochemical
T1 sequence (P36888 571-993): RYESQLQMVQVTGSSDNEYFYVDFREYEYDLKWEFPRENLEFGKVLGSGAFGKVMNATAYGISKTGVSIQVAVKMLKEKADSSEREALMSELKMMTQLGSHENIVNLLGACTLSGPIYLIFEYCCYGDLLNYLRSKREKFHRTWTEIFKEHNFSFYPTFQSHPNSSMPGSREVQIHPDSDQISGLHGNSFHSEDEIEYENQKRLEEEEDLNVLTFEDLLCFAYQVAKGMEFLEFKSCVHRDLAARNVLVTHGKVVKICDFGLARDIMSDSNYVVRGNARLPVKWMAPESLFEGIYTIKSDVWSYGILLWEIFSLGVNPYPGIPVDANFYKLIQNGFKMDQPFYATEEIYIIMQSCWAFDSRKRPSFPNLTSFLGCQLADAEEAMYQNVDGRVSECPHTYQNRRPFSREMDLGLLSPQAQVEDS

TRKA = TRKA (Homo sapiens, UniProt P04629); assay: Kd determination; assay type: binding
[2] = molecular target: ABL1 (H396P)-phosphorylated (Homo sapiens, UniProt P00519, H396P); assay: Kd determination; assay type: binding
AXL = AXL (Homo sapiens, UniProt P30530); assay: Kd determination; assay type: binding
BLK = BLK (Homo sapiens, UniProt P51451); assay: Kd determination; assay type: binding
PBS stability = assay type: physicochemical
EPHB6 = EPHB6 (Homo sapiens, UniProt O15197); assay: Kd determination; assay type: binding
Simulated gastric fluid = assay type: physicochemical
Plasma stability = assay type: in vitro ADME; details: mouse
[3] = molecular target: JAK1 (JH2 domain-pseudokinase) (Homo sapiens, UniProt P23458); assay: Kd determination; assay type: binding
Sequence of JAK1 (JH2 domain-pseudokinase) (P23458 583-855 limits assumed): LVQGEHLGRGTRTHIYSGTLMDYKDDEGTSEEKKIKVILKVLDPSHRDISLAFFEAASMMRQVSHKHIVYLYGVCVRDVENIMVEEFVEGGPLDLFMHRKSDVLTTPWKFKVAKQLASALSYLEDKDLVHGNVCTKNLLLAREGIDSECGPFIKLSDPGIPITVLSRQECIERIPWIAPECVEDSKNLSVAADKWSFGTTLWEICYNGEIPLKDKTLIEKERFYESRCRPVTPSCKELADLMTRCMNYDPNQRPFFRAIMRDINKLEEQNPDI

Sequence of IRAK1 (P51617 whole entry): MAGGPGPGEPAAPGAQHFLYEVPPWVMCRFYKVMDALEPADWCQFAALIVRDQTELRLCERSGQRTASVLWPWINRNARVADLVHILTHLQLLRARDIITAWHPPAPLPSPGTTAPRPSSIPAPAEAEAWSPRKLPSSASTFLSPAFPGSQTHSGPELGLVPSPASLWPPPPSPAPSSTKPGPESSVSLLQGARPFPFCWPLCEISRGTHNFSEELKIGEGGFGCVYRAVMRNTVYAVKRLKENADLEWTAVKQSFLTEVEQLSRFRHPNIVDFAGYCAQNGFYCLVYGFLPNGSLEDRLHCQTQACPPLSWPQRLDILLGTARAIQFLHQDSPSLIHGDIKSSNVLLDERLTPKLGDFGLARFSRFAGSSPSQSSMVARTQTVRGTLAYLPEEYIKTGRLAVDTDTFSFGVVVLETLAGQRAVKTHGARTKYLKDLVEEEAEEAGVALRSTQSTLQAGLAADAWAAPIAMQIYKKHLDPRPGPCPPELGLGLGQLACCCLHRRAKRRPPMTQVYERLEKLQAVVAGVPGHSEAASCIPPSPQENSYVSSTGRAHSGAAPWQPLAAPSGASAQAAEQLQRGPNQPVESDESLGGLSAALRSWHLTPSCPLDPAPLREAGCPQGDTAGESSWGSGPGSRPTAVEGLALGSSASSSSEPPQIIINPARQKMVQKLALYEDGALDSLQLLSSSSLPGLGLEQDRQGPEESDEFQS
Sequence of AURKA (O14965 whole entry): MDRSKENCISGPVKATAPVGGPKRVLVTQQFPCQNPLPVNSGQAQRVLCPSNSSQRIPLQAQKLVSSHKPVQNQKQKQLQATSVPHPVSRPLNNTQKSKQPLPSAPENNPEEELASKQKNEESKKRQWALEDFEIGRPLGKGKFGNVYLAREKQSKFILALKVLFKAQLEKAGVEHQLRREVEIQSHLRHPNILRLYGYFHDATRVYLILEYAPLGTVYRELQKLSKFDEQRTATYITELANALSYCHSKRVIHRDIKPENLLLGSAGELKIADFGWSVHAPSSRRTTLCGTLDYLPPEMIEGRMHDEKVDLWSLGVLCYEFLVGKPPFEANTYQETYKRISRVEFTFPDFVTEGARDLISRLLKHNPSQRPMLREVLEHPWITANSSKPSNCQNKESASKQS
Sequence of AXL (P30530 26-894): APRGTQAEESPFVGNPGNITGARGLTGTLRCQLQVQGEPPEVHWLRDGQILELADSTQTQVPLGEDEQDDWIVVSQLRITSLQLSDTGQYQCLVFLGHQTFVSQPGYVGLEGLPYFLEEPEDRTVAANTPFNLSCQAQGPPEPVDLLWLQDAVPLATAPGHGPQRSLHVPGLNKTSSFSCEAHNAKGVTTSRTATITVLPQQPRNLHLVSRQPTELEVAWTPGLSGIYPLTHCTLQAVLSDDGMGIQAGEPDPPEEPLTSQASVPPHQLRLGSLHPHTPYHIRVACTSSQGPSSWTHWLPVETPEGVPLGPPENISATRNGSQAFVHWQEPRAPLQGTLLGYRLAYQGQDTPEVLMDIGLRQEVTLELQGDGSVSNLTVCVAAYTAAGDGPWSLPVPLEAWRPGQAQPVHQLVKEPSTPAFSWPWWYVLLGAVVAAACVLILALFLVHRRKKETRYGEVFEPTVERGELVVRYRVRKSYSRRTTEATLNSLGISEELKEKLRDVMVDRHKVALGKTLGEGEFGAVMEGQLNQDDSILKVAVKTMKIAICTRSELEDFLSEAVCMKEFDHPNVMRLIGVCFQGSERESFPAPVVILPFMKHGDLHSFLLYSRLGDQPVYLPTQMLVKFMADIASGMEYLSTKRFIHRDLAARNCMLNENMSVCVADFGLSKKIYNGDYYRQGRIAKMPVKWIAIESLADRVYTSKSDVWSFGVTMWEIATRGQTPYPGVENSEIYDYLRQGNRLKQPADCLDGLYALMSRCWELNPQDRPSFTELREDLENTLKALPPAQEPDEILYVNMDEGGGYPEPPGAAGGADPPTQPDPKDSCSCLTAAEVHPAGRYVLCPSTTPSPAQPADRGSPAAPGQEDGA
Sequence of BLK (P51451 whole entry): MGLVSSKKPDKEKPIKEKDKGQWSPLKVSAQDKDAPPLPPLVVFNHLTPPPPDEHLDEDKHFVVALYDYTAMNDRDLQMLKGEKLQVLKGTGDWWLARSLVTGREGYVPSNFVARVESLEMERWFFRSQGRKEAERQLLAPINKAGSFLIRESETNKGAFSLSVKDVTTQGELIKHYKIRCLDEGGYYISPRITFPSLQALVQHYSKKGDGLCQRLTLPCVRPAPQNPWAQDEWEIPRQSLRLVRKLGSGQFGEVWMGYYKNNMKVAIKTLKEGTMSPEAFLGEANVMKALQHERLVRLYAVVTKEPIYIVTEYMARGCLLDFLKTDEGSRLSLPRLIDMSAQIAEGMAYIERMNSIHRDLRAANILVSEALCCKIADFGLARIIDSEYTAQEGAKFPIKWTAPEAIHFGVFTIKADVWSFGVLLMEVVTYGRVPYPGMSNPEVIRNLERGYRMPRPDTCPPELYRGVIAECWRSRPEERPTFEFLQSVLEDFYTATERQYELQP
Sequence of EPHB6 (O15197 32-1021): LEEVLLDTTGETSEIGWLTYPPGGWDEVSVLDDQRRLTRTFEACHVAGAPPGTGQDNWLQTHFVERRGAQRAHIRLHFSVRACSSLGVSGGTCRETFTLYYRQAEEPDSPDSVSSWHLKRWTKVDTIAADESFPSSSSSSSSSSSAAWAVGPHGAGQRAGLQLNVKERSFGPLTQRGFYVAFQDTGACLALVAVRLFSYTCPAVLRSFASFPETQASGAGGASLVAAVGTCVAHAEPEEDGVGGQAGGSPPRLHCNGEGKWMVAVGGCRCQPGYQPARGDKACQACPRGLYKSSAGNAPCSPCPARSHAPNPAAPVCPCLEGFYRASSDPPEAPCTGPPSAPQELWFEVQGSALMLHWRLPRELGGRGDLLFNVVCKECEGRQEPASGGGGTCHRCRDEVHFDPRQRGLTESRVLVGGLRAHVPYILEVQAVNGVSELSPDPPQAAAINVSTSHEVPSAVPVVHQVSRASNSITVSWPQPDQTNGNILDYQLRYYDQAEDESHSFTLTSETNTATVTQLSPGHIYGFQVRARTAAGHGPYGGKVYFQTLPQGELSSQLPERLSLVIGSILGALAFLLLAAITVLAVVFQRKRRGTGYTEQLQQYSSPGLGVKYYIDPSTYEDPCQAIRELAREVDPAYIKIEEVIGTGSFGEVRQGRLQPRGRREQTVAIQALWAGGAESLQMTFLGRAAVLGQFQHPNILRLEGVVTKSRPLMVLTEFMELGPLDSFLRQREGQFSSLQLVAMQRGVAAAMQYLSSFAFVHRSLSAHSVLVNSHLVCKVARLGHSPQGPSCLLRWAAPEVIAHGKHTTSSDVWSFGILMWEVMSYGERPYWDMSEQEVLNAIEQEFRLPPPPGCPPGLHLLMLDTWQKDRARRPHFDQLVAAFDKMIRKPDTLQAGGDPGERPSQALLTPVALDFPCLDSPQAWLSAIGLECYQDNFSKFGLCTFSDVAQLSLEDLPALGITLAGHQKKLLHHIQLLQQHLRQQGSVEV
Sequence of TRKA (P04629 33-796): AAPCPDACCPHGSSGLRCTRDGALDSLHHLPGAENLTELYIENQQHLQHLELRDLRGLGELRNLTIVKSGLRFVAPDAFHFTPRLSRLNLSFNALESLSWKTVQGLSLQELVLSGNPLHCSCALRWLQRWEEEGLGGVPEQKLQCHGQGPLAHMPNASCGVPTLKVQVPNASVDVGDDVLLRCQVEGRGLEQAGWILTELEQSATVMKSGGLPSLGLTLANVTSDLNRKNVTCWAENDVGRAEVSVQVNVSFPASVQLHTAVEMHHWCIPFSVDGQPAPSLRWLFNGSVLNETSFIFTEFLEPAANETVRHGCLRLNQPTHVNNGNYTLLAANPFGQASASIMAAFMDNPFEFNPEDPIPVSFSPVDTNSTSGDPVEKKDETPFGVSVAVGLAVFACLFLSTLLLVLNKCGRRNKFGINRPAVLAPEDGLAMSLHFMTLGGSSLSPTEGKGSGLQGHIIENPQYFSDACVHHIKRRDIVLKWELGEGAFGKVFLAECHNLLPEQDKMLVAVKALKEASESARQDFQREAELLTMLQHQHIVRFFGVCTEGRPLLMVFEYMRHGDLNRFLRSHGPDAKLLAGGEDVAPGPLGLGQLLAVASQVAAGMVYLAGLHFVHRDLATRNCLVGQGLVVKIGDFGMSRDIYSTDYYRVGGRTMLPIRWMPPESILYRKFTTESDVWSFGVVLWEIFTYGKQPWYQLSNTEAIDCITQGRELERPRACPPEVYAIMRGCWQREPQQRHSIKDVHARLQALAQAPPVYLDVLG
Sequence of SRC (P12931 whole entry): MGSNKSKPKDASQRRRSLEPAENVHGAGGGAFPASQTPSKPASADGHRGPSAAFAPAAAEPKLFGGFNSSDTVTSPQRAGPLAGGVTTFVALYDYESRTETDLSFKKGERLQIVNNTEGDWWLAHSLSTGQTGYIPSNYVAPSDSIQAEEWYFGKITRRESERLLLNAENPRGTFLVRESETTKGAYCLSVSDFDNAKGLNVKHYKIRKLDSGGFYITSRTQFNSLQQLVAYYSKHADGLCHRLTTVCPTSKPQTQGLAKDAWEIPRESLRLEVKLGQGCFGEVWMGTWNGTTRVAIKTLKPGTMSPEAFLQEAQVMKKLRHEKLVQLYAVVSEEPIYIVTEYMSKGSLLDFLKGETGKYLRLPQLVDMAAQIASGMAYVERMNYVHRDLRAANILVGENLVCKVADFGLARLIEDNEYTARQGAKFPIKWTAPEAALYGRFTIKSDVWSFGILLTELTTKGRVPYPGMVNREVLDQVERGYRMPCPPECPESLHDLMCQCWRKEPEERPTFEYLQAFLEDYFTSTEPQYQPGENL

Kd (AURKA) [nM]	Kd (RET (M918T)) [nM]	Kd (IRAK1) [nM]	Kd (RET (V804M)) [nM]	Kd (SRC) [nM]	Kd (HCK) [nM]	Kd (PRKCQ) [nM]	IC50 ([1]; FLT3 IC50, 100 μM ATP) [nM]	IC50 ([1]; FLT3 IC50, 2.5 mM ATP) [nM]	Kd (TRKA) [nM]	Kd [2] [nM]	Kd (AXL) [nM]	Kd (BLK) [nM]	PBS stability (PBS stability; pH = 3.0) [h]	PBS stability (PBS stability; pH = 5.0) [h]	PBS stability (PBS stability; pH = 7.4) [h]	Kd (EPHB6) [nM]	SGF stability (Simulated gastric fluid) [h]	plasma stability (Plasma stability) [h]	Kd [3] [nM]	SMILES
1600	1200	1500	1400	1100	2100	1600	< 6	116	1100	2100	2100	3900								c1cncc(-c2cccc(Nc3nccc(NC4CCCCC4)n3)c2)c1 [Compound 1, N^4-Cyclohexyl-N^2-(3-(pyridin-3-yl)phenyl)pyrimidine-2,4-diamine]
													>48	>48	>48	440	>48	>48	28	CC(C)Nc1ccnc(Nc2cccc(-c3cccnc3)c2)n1 [Compound 5e, N^4-Isopropyl-N^2-(3-(pyridin-3-yl)phenyl)pyrimidine-2,4-diamine]
